From patent US20090221649A1, “Use of substituted 2-thio-3,5-dicyano-4-phenyl-6-aminopyridines for the treatment of reperfusion injury and reperfusion damage” (Bayer HealthCare AG, priority 2005, published 2009)
“Also recorded” adds a separate entry of the source.

Experiments:
isolated rabbit hearts = experiment: Limitation of infarct size in isolated buffer-perfused rabbit hearts, drug at reperfusion
Method: The quantification of infarct size and experimental design followed the protocol described by Zhang et al., J Cardiovasc Pharmacol 42, 2003.
Hearts were quickly removed from anesthetized rabbits and perfused with Krebs buffer. […] The risk zone was stained with fluorescent microspheres, then the heart was sliced into 2 mm sections and the infarct size was visualized by tetrazolium staining. The drug was mixed with the perfusate at 50 μg/L starting 5 min prior to reperfusion and continuing for 55 min. […] Ischemic preconditioning is the most powerful cardioprotective intervention known but of no practical value clinically.

[1] = Tolerability when given intravenously; format: in vivo
rabbit hearts (in vivo) = experiment: Limitation of infarct size in rabbit hearts in vivo (open-chest rabbits), drug at reperfusion; set-up: species or system New Zealand White rabbits
Method: Rabbits (New Zealand White rabbits of either sex weighing 1.6 to 3.0 kg) were anesthetized with sodium pentobarbital (30 mg/kg) which was subsequently supplemented as needed. Positive pressure ventilation with 100% oxygen was instituted. The heart was exposed through a left thoracotomy and a ligature was passed under a coronary branch to create the ischemia. Drug was given intravenously in a dose of 10 μg/kg over 1 min starting 5 min prior to reperfusion and again 15 min after reperfusion. The heart was removed after 3 hr of reperfusion. The risk zone was stained with fluorescent microspheres, then the heart was sliced into 2 mm sections and the infarct size was determined by tetrazolium staining.
Postconditioning is an established cardioprotective intervention where the occluded artery is intermittently opened and closed for four 30-second cycles at the end of the ischemic insult.

Row | SMILES | reduction of infarct size (isolated rabbit hearts; 50 μg/L in perfusate from 5 min prior to reperfusion for 55 min, 30 min ischemia, 2 hr reperfusion) [%] | protection compared with ischemic preconditioning (IPC) (isolated rabbit hearts; 50 μg/L, IPC = 5 min ischemia and 10 min reperfusion) | infarct size in % of risk area, untreated hearts in comparison to treated hearts (isolated rabbit hearts; 50 μg/L, p=0.032) | tolerability [1] | infarct size limitation compared with postconditioning (rabbit hearts (in vivo); 10 μg/kg i.v. 5 min prior to and 15 min after reperfusion) | reduction of infarct size (rabbit hearts (in vivo); 10 μg/kg i.v. 5 min prior to and 15 min after reperfusion, 30 min regional ischemia, 3 hr reperfusion) [%] | adverse hemodynamic effects (rabbit hearts (in vivo); 10 μg/kg i.v., open-chest rabbits)
1 | N#Cc1c(N)nc(SCC(N)=O)c(C#N)c1-c1ccc(O)cc1 [Compound A, 2-{[6-Amino-3,5-dicyano-4-(4-hydroxyphenyl)pyridin-2-yl]thio}acetamide] | ~50 | not as protective as ischemic preconditioning | significantly larger | – | – | – | –
2 | N#Cc1c(N)nc(SCC(N)=O)c(C#N)c1-c1ccc(OCC2CC2)cc1 [Compound B, 2-({6-Amino-3,5-dicyano-4-[4-(cyclopropylmethoxy)phenyl]pyridin-2-yl}thio)acetamide] | – | – | – | well tolerated | equivalent to postconditioning in its potency; also recorded: as effective as postconditioning | > 50 | No adverse hemodynamic effects
